Reference: US9266820B2, “Nitric oxide donor compounds” (NICOX S.A., priority 2007, dated 2016)
Counter-ions that a name gives are not always drawn.

The compounds below were run on isolated rabbit thoracic aorta preparations (assay: vasorelaxant activity in isolated rabbit thoracic aorta preparations precontracted with noradrenaline). Settings: Oryctolagus cuniculus, read-out: IC50 (μM) ± sem.
Assay type: cell-based
Method: The ability of the compounds of the present invention to release nitric oxide was assessed testing their vasorelaxant activity in isolated rabbit thoracic aorta preparations (Wanstall J. C. et al., Br. J. Pharmacol., 134:463-472, 2001).
Male New Zealand rabbits were anaesthetized with thiopental-Na (50 mg/kg, iv), sacrificed by exsanguinations and then the thorax was opened and the aorta dissected. Single ring preparations (4 mm in length) of thoracic aorta were set up in physiological salt solution (PSS) at 37° C. in small organ chambers (5 ml). The composition of PSS was (mM): NaCl 130, NaHCO3 14.9, KH2PO4 1.2, MgSO4 1.2, HEPES 10, CaCl2, ascorbic acid […] and glucose 1.1 (95%)2/5% CO2; pH 7.4). Each ring was mounted under 2 g passive tension in 5 ml organ bath. Isometric tension was recorded with a Grass transducer (Grass FT03) attached to a BIOPAC MP150 System. Preparations were allowed to equilibrate for 1 h, then contracted submaximally with noradrenaline (NA, 1 μM) and, when the contraction was stable, acetylcholine (ACh, 10 μM) was added. A relaxant response to ACh indicated the presence of a functional endothelium. When a stable precontraction was reached, a cumulative concentration-response curve to either of the vasorelaxant agents was obtained in the presence of a functional endothelium. Time intervals between different concentrations were based on the time needed to reach a full response.
Moreover, the nitric oxide-dependent vascular relaxation elicited by the tested compounds was examined preincubating the aortic rings with the soluble guanylyl cyclase inhibitor ODQ (1H-(1,2,4)-oxadiazol(4,3-a)quinoxalin-1-one) at 10 μM for 20 min. Responses to vasorelaxing agents were measured from the plateau of NA contraction. The IC50 (concentration giving 50% reversal of NA contraction) was interpolated from the plots of relaxant-response vs log molar concentration of tested compound.
During the experimental period, the plateau obtained with NA was stable without significant spontaneous loss of contraction in the aortic rings.

Row | SMILES | IC50
1 | CC(C)(C)OC(=O)N[C@@H](Cc1ccccc1)C(=O)OCCCC[C@H](CO[N+](=O)[O-])O[N+](=O)[O-] [Compound 123] | 0.64 ± 0.14 µM
2 | NC(COC(=O)OCCCCO[N+](=O)[O-])C(=O)O (stereo not drawn) [Compound 407, 2-amino-3-((4-(nitrooxy)butoxy)carbonyloxy)propanoic acid hydrochloride] | 16 ± 6.4 µM

Same assay, conditions: Oryctolagus cuniculus; concentration giving 50% reversal of NA (1 μM) contraction; aortic rings with functional endothelium; read-out: IC50 (μM) ± sem

Row | SMILES | IC50
3 | CC(C)(C)OC(=O)N1CCCC1C(=O)OCCCCO[N+](=O)[O-] (stereo not drawn) [Example 14, 1-tert-butyl 2-(4-(nitrooxy)butyl)pyrrolidine-1,2-dicarboxylate] | 1.9 ± 0.4 µM
4 | CC(C)(C)OC(=O)N[C@@H](Cc1ccccc1)C(=O)OCCCCO[N+](=O)[O-] [Compound 15, (S)-4-(nitrooxy)butyl 2-(tert-butoxycarbonylamino)-3-phenylpropanoate] | 12.6 ± 6.4 µM
5 | CC(C)(C)OC(=O)NCC(=O)NCCCCO[N+](=O)[O-] [Compound 12, tert-butyl 2-(4-(nitrooxy)butylamino)-2-oxoethylcarbamate] | 10.2 ± 4.2 µM
6 | CC(C)(C)OC(=O)NC(CCc1ccccc1)C(=O)Oc1cccc(CO[N+](=O)[O-])c1 (stereo not drawn) [Compound 86, 3-[(Nitrooxy)methyl]phenyl 2-(tert-butoxycarbonylamino)-4-phenylbutanoate] | 5.2 ± 0.9 µM
7 | CC(C)(C)OC(=O)NCCOC(=O)CCCO[N+](=O)[O-] [Compound 508, 2-(tert-butoxycarbonylamino)ethyl 4-(nitrooxy)butanoate] | 4.4 ± 0.7 µM
8 | CC(C)(C)OC(=O)N[C@H](COC(=O)CCCO[N+](=O)[O-])Cc1ccccc1 [Compound 511, (S)-2-(tert-butoxycarbonylamino)-3-phenylpropyl 4-(nitrooxy)butanoate] | 9.5 ± 3.6 µM
9 | CC(C)(C)OC(=O)NC(CCc1ccccc1)C(=O)OCc1ccc(CO[N+](=O)[O-])cc1 (stereo not drawn) [Compound 13, 4-[(Nitrooxy)methyl]benzyl 2-(tert-butoxycarbonylamino)-4-phenylbutanoate] | 10.2 ± 0.5 µM
10 | CC(C)(C)OC(=O)NC(CCc1ccccc1)C(=O)OCCOCCO[N+](=O)[O-] (stereo not drawn) [Example 21, 2-(2-(Nitrooxy)ethoxy)ethyl 2-(tert-butoxycarbonylamino)-4-phenylbutanoate] | 8 ± 1.8 µM
11 | CC(C)(C)OC(=O)NCC(=O)OCc1ccc(CO[N+](=O)[O-])cc1 [Compound 87, 4-[(nitrooxy)methyl]benzyl 2-(tert-butoxycarbonylamino)acetate] | 2.1 ± 0.4 µM
12 | CC(C)(C)OC(=O)N1CCCC1C(=O)OCc1ccc(CO[N+](=O)[O-])cc1 (stereo not drawn) [Compound 7, 1-tert-Butyl 2-(4-(nitrooxymethyl)benzyl)pyrrolidine-1,2-dicarboxylate] | 2.4 ± 0.5 µM
13 | CC(C)(C)OC(=O)N1CCCC1C(=O)OCCCO[N+](=O)[O-] (stereo not drawn) [Example 15, 1-tert-butyl 2-(3-(nitrooxy)propyl)pyrrolidine-1,2-dicarboxylate] | 1.2 ± 0.33 µM

Same assay, conditions: concentration giving 50% reversal of NA (1 μM) contraction; aortic rings with functional endothelium; read-out: IC50 (μM) ± sem

Row | SMILES | IC50
14 | CC(C)(C)OC(=O)N1CCCC1C(=O)OCCOCCO[N+](=O)[O-] (stereo not drawn) [Compound 9] | 4.5 ± 1.4 µM
15 | CC(C)(C)OC(=O)N1CCCC1C(=O)Oc1cccc(CO[N+](=O)[O-])c1 (stereo not drawn) [Compound 8] | 2.6 ± 0.6 µM
